Entries after “also recorded” stand apart in the source; their conditions may differ.
Columns and labels:
[1] = tested on: hPSCs-derived Podocytes cells; experiment: Functional response to stressor stimulation: ZO-1 localization by immunocytochemistry and image based high content analysis; assay type: cell-based, human; conditions: podocytes at Day 13, already at Day 1, sustained at D2 and D5, DMEMF12 medium
Method: (§1) FIG. 6: Characterization of monolayer differentiated hPSCs-derived Podocytes cells at Day 13. hiPSCs have been differentiated in monolayer conditions and at Day 13 have been tested for functional response to TGF beta (10 ng/ml) stressor stimulation. The expression of the tight junction marker ZO-1 has been tested by immunocytochemistry analysis and its cellular localization by image based high content analysis (HCA).
as §1, with “7:” for “6:”, “Angiotensin II (AngII) (100 nM)” for “TGF beta (10 ng/ml)”
The cells were fixed with PBS containing 4% paraformaldehyde for 20 min at room temperature. After three washing with PBS the cells the cells were then blocked with 5% BSA solution (Blocking buffer) for 60 min. When probing for an intracellular antigen, 0.5% Triton-X was included in the blocking buffer. […] Fluorescence was acquired and analyzed by the Operetta® High Content Imaging System (PerkinElmer) followed by computer-based image analysis (ImageJ, Java-based image processing program). […]

[2] = tested on: hPSCs-derived Podocytes cells; experiment: Pro-inflammatory cytokine response assay (Bio-Plex Pro Cytokine, Chemokine and Growth factor assay); assay type: cell-based, human; conditions: TNFα 1 ng/ml and 5 ng/ml, 24 h, DMEMF12 medium
Method: FIG. 8a: Pro-inflammatory cytokine response assay. hPSCs-derived Podocytes cells at Day 13 upregulate the expression of pro-inflammatory markers such as IL-8 upon stimulation with TNFα (1 ng/ml and 5 ng/ml) after 24 h in DMEMF12 medium Main panel: Quantification graph: concentration in the harvested supernatant (pg/ml) of the mentioned cytokines. Bio-Plex Pro Cytokine, Chemokine and Growth factor assay was used to measure the activation of hPSCs-derived Podocytes cells in response to TNFα.
In response to proinflammatory stimuli Podocytes express specific cytokines including IL-8, Rantes, MIP-1b and MCP1. Bio-Plex Pro™ Cytokine, Chemokine and Growth factor assay (Biorad, M50-0KCAF0Y). After overnight serum starvation hiPS derived podocytes were exposed at two different concentrations of TNFα (1 and 5 ng/ml) for 24 hours. After treatment the supernatants were collected and used to quantify the Cytokine, Chemokine and Growth factor release using Bio-Plex Pro™ Cytokine, Chemokine and Growth factor assay kit (Biorad, M50-0KCAF0Y). The assay was performed following the manufacturer's instruction. To determine whether the differentiation system generates bona fide Podocytes, we challenged the iPS-derived Podocytes with proinflammatory TNFα and analyzed for cytokine and chemokine release.

Substance: Angiotensin II [AngII, stressor stimulation (100 nM) of podocytes]
- ZO-1 cellular localization (perinuclear translocation of ZO-1 expression) ([1]; AngII 100 nM): remodeling and translocation of the ZO-1 expression form the membrane to the perinuclear zone

Substance: TGF beta: stressor stimulation (10 ng/ml) of podocytes
- ZO-1 cellular localization (perinuclear translocation of ZO-1 expression) ([1]; TGF beta 10 ng/ml): remodeling and translocation of the ZO-1 expression form the membrane to the perinuclear zone

Substance: TNFα
- IL-8 concentration in the harvested supernatant [2]: increase of the supernatant concentration; also recorded: significantly upregulated
- MCP1 concentration in the harvested supernatant [2]: increase of the supernatant concentration; also recorded: significantly upregulated
- MIP1b concentration in the harvested supernatant [2]: increase of the supernatant concentration; also recorded: significantly upregulated
- RANTES concentration in the harvested supernatant [2]: increase of the supernatant concentration; also recorded: significantly upregulated

— US10138468B2, “Method for differentiation of pluripotent stem cells into multi-competent renal precursors” (Hoffmann-La Roche Inc., priority 2013, dated 2018)
